The record followed here is patent US12570655B2, “Cysteine covalent modifiers of AKT1 and uses thereof” (Terremoto Biosciences, Inc., priority 2023, dated 2026).

Type in all cases: cell-based
One assay addresses T1, AKT1 WT (Homo sapiens, UniProt P31749).
T1 construct: expressed in transfected cells; host or cells: HEK293
In words: Live cell AKT1 WT target engagement by NanoBRET competitive probe displacement. To be noted: HEK293 cells transfected with kinase-NanoLuciferase fusion, 2 h at 37° C. An outline of the steps:
(§1)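 Steps: overnight transfection of HEK293 with kinase-NanoLuc plasmids; addition of compound dilutions and tracer (~EC50); 2 h incubation at 37 °C; substrate plus extracellular luciferase inhibitor; luminescence at 460 and 600 nm. IC50 values came from fitting the BRET ratio to a Hill equation.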
On the technique in general: Bioluminescence resonance energy transfer reports proximity on the nanometre scale.

Another assay concerns the target T2, AKT1 E17K (Homo sapiens, UniProt P31749, E17K).
T2 construct: expressed in transfected cells; host or cells: HEK293
In words: Live cell AKT1 E17K target engagement by NanoBRET competitive probe displacement. To be noted: HEK293 cells transfected with kinase-NanoLuciferase fusion, 2 h at 37° C. An outline of the steps: as §1

The target in the next assay is T3, AKT2 (Homo sapiens, UniProt P31751).
T3 construct: expressed in transfected cells; host or cells: HEK293
T3 sequence (P31751 whole entry): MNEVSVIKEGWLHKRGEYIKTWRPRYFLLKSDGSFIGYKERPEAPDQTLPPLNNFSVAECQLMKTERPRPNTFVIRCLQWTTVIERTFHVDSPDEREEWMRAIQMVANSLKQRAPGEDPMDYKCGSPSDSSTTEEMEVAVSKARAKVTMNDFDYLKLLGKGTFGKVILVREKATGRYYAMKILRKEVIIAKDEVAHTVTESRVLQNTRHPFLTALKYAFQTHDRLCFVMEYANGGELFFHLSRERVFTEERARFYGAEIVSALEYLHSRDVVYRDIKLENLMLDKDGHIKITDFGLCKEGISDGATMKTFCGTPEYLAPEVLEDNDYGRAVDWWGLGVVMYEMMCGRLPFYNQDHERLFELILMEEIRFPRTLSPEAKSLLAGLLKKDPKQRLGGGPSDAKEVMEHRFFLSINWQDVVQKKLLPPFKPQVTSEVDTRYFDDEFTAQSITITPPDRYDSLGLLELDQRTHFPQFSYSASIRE
In words: Live cell AKT2 target engagement by NanoBRET competitive probe displacement. The following applies: HEK293 cells transfected with kinase-NanoLuciferase fusion, 2 h at 37° C. An outline of the steps: as §1

Assay [1] relates to LAPC4 prostate cancer cells. In words: Antiproliferative effects in LAPC4 cells (CellTiter Glo). To be noted: LAPC4 cells (AKT1 E17K allele), read-out: LAPC4 proliferation IC50. An outline of the steps: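 Growth inhibition is gauged by intracellular ATP content, measured with CellTiter Glo 72 h after compound addition to 1,000 seeded cells per well. IC50 derives from a Hill equation fit.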
Background: In ATP-based viability assays light output follows the ATP content of the culture.

Like-named read-outs stand apart in the source and are kept apart here.

T2 sequence (P31749 whole entry E17K): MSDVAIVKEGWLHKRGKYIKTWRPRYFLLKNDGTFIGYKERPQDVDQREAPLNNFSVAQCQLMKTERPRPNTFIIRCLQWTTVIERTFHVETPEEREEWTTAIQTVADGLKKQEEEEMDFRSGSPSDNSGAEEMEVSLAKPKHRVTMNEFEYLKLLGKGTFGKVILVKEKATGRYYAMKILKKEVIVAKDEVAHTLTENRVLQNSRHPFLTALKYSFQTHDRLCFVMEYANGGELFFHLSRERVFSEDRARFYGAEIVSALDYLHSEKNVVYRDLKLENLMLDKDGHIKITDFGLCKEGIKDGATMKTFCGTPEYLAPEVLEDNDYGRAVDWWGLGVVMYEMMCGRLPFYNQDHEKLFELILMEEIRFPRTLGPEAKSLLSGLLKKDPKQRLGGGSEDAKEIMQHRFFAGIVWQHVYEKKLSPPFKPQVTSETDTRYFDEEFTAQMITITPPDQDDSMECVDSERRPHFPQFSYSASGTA
T1 sequence (P31749 whole entry): as the sequence (P31749 whole entry E17K) above, with K17E counted along it

As to `C=C(F)C(=O)Nc1cn(C)nc1C(=O)N[C@H]1CCc2cc(-n3c(-c4cccnc4N)nc4ccc(-n5cccn5)nc43)ccc21` [Example 36, (S)-N-(5-(2-(2-aminopyridin-3-yl)-5-(1H-pyrazol-1-yl)-3H-imidazo[4,5-b]pyridin-3-yl)-2,3-dihydro-1H-inden-1-yl)-4-(2-fluoroacrylamido)-1-methyl-1H-pyrazole-3-carboxamide], the IC50 at AKT1 WT stood at 64.5 nM; at AKT1 E17K, 179 nM; at AKT2, 982 nM; in assay [1] (Homo sapiens, LAPC4, 72 h), 533 nM.
For the compound `C=CC(=O)N1CCC(N[C@H]2CCc3cc(-n4c(-c5cccnc5N)nc5ccc(C6CC6)nc54)ccc32)C(C)C1` (single isomer, unassigned) [Example 230, 1-((3*,4*)-4-(((S)-5-(2-(2-aminopyridin-3-yl)-5-cyclopropyl-3H-imidazo[4,5-b]pyridin-3-yl)-2,3-dihydro-1H-inden-1-yl)amino)-3-methylpiperidin-1-yl)prop-2-en-1-one], the IC50 amounted to 890 nM at AKT1 WT, 41.9 nM on AKT1 E17K, 346 nM on AKT2 and 600 nM in assay [1] (72 h).
Regarding `C#Cc1cccc(-c2ccc3nc(-c4cccnc4N)n(-c4ccc5c(c4)CC[C@@H]5NC4CCN(C(=O)C=C)CC4)c3n2)c1` [Example 178, 1-(4-{[(1S)-5-[2-(2-aminopyridin-3-yl)-5-(3-ethynylphenyl)imidazo[4,5-b]pyridin-3-yl]-2,3-dihydro-1H-inden-1-yl]amino}piperidin-1-yl)prop-2-en-1-one], the IC50 on AKT1 WT came out at 33.2 nM; on AKT1 E17K it was 18.1 nM; on AKT2, 26.7 nM; in assay [1] (Homo sapiens, LAPC4, 72 h), 71 nM.
For `C=CC(=O)N1CCC(N[C@H]2CCc3cc(-n4c(-c5cccnc5N)nc5ccc(-n6cccn6)nc54)ccc32)C(C)(F)C1` (single isomer, unassigned) [Example 307, 1-((3*,4*)-4-(((S)-5-(2-(2-aminopyridin-3-yl)-5-(1H-pyrazol-1-yl)-3H-imidazo[4,5-b]pyridin-3-yl)-2,3-dihydro-1H-inden-1-yl)amino)-3-fluoro-3-methylpiperidin-1-yl)prop-2-en-1-one], the IC50 at AKT1 WT is 294 nM; at AKT1 E17K, 12.3 nM; on AKT2, 106 nM; in assay [1] (72 h), 345 nM.
For the compound `CC#CC(=O)N1CCC(N[C@H]2CCc3cc(-n4c(-c5cccnc5N)nc5ccc(-n6cccn6)nc54)ccc32)CC1` [Example 69, 1-(4-{[(1S)-5-[2-(2-aminopyridin-3-yl)-5-(pyrazol-1-yl)imidazo[4,5-b]pyridin-3-yl]-2,3-dihydro-1H-inden-1-yl]amino}piperidin-1-yl)but-2-yn-1-one], the IC50 at AKT1 WT came out at 25.3 nM; at AKT1 E17K it was 57.7 nM; on AKT2 it was 226 nM; in assay [1] (Homo sapiens, LAPC4, 72 h), 358 nM.
On the same counts, the results for `C=CC(=O)Nc1ccccc1C(=O)N[C@H]1CCc2cc(-n3c(-c4cccnc4N)nc4ccc(-n5nccn5)nc43)ccc21` [Example 19, (S)-2-acrylamido-N-(5-(2-(2-aminopyridin-3-yl)-5-(2H-1,2,3-triazol-2-yl)-3H-imidazo[4,5-b]pyridin-3-yl)-2,3-dihydro-1H-inden-1-yl)benzamide] are 15.8 nM, 27 nM, 326 nM and 88 nM.
The like results for `C=C(F)C(=O)N1CCC2(CC1)CC(N[C@H]1CCc3cc(-n4c(-c5cccnc5N)nc5ccc(-n6cccn6)nc54)ccc31)C2` [Example 84, (S)-1-(2-((5-(2-(2-aminopyridin-3-yl)-5-(1H-pyrazol-1-yl)-3H-imidazo[4,5-b]pyridin-3-yl)-2,3-dihydro-1H-inden-1-yl)amino)-7-azaspiro[3.5]nonan-7-yl)-2-fluoroprop-2-en-1-one] were, in that order, 34.1 nM, 264 nM, 278 nM and 327 nM.
